For assay [1], the system named is S. Typhimurium ATCC14028. Put plainly: Bioscreen assay: influence on planktonic growth curve. Format: cell-based, Salmonella Typhimurium. Details: key: x: no influence on the planktonic growth at the IC50 for biofilm inhibition; ∘: planktonic growth is retarded at the IC50 for biofilm inhibition. Conditions: planktonic growth at the IC50 for biofilm inhibition, 25° C. An excerpt:
(§1) Some of the tested compounds show a concentration range in which biofilm formation is inhibited but no effect on planktonic growth is observed. These compounds are particularly interesting for prevention of biofilm formation since the development of resistance against these compounds is less likely. Table 8 indicates whether the different compounds have an effect on the planktonic growth of the bacteria at the IC50 for biofilm inhibition. To construct Table 8, the effect of the tested compounds on the growth curve of the bacteria was determined at a concentration equal to the IC50 for biofilm inhibition, by using the Bioscreen system available from Oy Growth Curves Ab Ltd). The Bioscreen device from Oy Growth Curves Ab Ltd was used for measuring the influence of the chemical compounds on the planktonic growth of Salmonella Typhimurium and Pseudomonas aeruginosa. The Bioscreen is a computer controlled incubator/reader/shaker that uses 10×10 well microtiter plates and measures light absorbance of each well at a specified wave length in function of time. An overnight culture of S. […] The broth used was TSB 1/20 for the experiments at 16° C. and 25° C. For experiments at 37° C. CFA medium was used for S. […] As a control 3 μl of the appropriate solvent (DMSO or EtOH) was also added to the plate in 3- or 4-fold. The microtiter plate was incubated in the Bioscreen device at 16° C., 25° C. or 37° C. for at least 36 hours, with continious medium shaking. The absorbance of each well was measured at 600 nm each 15 minutes. Excel was used to generate the growth curves for treated the treated wells and the untreated control wells. Some of the compounds show a concentration range in which biofilm formation is inhibited but no effect on the planktonic growth is observed. Table 14 indicates if the different compounds have an effect on the planktonic growth of the bacteria at the IC50 for biofilm inhibition. To construct this table the effect of the compounds on the growth curve of the bacteria was determined at a concentration equal to the IC50 for biofilm inhibtion, by using the Bioscreen system from Oy Growth Curves Ab Ltd.

Assay [2] relates to Pseudomonas aeruginosa PA14. Briefly: Antibacterial activity: growth inhibition, OD600 after 24 h (GIC50). Type of assay: cell-based. Conditions: 25° C. As for the experimental part: Starting from a 40 mM stock solution of each compound in DMSO, two-fold serial dilutions in 100 μl liquid broth per well were prepared in dublicate in sterile transparant microtiter plates. The broth used was TSB 1/20 for measurements at 25° C. and CFA (in case of Salmonella Typhimurium) and LBNS (in case of Pseudomonas aeruginosa) for measurements at 37° C. Subsequently an overnight culture of the bacteria (S. Typhimurium ATCC14028 or P. aeruginosa PA14) was diluted 1/200 into the corresponding liquid broth and 100 μl was added to each well of the microtiterplate resulting in a total amout of 200 μl medium per well. After an incubation of 24 hours the optical density at 600 nm of each well was determined with a microtiter plate reader (VERSAmax, Molecular Devices).
Evaluation of antibacterial-inhibitory activity of some substituted imidazo[1,2-a]pyrimidinium bromide salts of the invention was carried out by diluting an overnight culture of Salmonella Typhimurium ATCC14028 or Pseudomonas aeruginosa PA141/200 into liquid medium. 200 μl of the diluted overnight culture was added to each well of a microtiterplate together with different concentrations of the test compound (1/2 dilution series of the compound). After an incubation of 24 hours the optical density at 600 nm of each well was determined with a microtiter plate reader. […] The GIC50 values of representative compounds for antibacterial activity are shown in the following Tables 9 and 10 (wherein Ph stands for phenyl, Me for methyl): […]

Assay [3] deals with S. Typhimurium ATCC14028. Briefly: Bioscreen assay: influence on planktonic growth curve. Format: cell-based, Salmonella Typhimurium. On the set-up: key: x: no influence on planktonic growth at the IC50 for biofilm inhibition; planktonic growth is retarded at the IC50 for biofilm inhibition. Conditions: planktonic growth at the IC50 for biofilm inhibition, 25° C.
Text: as §1, with “Table 14 indicates if the different compounds have an effect on the planktonic growth of the bacteria at the IC50 for biofilm inhibition.” left out

For assay [4], the system named is Pseudomonas aeruginosa PA14. Described as above. Type of assay: cell-based. On the set-up: key: x: no influence on planktonic growth at the IC50 for biofilm inhibition; planktonic growth is retarded at the IC50 for biofilm inhibition. To be noted: planktonic growth at the IC50 for biofilm inhibition, 25° C. An excerpt: Some of the tested compounds show a concentration range in which biofilm formation is inhibited but no effect on planktonic growth is observed. These compounds are particularly interesting for prevention of biofilm formation since the development of resistance against these compounds is less likely. Table 8 indicates whether the different compounds have an effect on the planktonic growth of the bacteria at the IC50 for biofilm inhibition. To construct Table 8, the effect of the tested compounds on the growth curve of the bacteria was determined at a concentration equal to the IC50 for biofilm inhibition, by using the Bioscreen system available from Oy Growth Curves Ab Ltd). The Bioscreen device from Oy Growth Curves Ab Ltd was used for measuring the influence of the chemical compounds on the planktonic growth of Salmonella Typhimurium and Pseudomonas aeruginosa. The Bioscreen is a computer controlled incubator/reader/shaker that uses 10×10 well microtiter plates and measures light absorbance of each well at a specified wave length in function of time. An overnight culture of S. […] The absorbance of each well was measured at 600 nm each 15 minutes. […] To construct this table the effect of the compounds on the growth curve of the bacteria was determined at a concentration equal to the IC50 for biofilm inhibtion, by using the Bioscreen system from Oy Growth Curves Ab Ltd.

Assay [5] has as its system S. Typhimurium ATCC14028. The description is as above. Conditions: 400 μM. Format: cell-based, Salmonella Typhimurium.
Text: as §1

As to `CCCCCCN1c2nccc[n+]2CC1(O)c1ccc([N+](=O)[O-])cc1.[Br-]` (centres unmarked) [Compound 34], in assay [1], the Influence on growth result is “x”.
In assay [2], `OC1(c2ccc(Cl)cc2)C[n+]2cccnc2N1C1CCCCC1.[Br-]` (centres unmarked) [Compound 64] yielded an IC50 of 61.3 µM. Moreover, the Influence on growth entry in assay [1] is recorded as “x”.
In assay [2], `O=[N+]([O-])c1ccc(C2(O)C[n+]3cccnc3N2C2CCCCCCCCCCC2)cc1.[Br-]` (centres unmarked) [Compound 69] displayed a 50% inhibitory concentration (IC50) of 8.89 µM. The Influence on growth result in assay [3] and in assay [4] was “∘” each time.
Consider `OC1(c2ccc(I)cc2)C[n+]2cccnc2N1Cc1ccccc1.[Br-]` (centres unmarked) [Compound 73], for which half-maximal inhibition in assay [2] (IC50) was put at 51.7 µM. For the same molecule, the “Effect on growth at 400 μM” value in assay [5] is “∘”. For the same molecule, the Influence on growth result in assay [1] is reported as “x”.
For `OC1(c2ccc(-c3ccccc3)cc2)C[n+]2cccnc2N1C1CCCC1.[Br-]` (centres unmarked) [R1=Cyclopentyl, R3=4-biphenylyl, R4=H, 1-cyclopentyl-2-hydroxy-2-(4-biphenylyl)-2,3-dihydro-1H-imidazo[1,2-a]pyrimidin-4-ium bromide], the midpoint of inhibition in assay [2] (Pseudomonas aeruginosa, PA14), the IC50, lay at 27.1 µM. The Influence on growth result in assay [1] is “x”.

As a reminder, the IC50 is the concentration that inhibits the measured activity by half.

(Values after US20130029981A1, “COMPOUNDS, COMPOSITIONS, AND METHODS FOR CONTROLLING BIOFILMS” (Katholieke Universiteit Leuven, priority 2009, published 2013).)
